pIC50, pKd: −log10 of the molar value. Activity calls are given as the source filed them. The calls are words filed in the database; no cut-off is given here.
How the values were obtained:
[1] = target: T1, Dual specificity mitogen-activated protein kinase kinase 7 (Homo sapiens) (UniProt O14733); assay: Binding affinity to MKK7 (unknown origin) expressed in HEK293 cells assessed as dissociation constant at <30 uM by kinomescan method; type: cell-based
T1 sequence (whole entry): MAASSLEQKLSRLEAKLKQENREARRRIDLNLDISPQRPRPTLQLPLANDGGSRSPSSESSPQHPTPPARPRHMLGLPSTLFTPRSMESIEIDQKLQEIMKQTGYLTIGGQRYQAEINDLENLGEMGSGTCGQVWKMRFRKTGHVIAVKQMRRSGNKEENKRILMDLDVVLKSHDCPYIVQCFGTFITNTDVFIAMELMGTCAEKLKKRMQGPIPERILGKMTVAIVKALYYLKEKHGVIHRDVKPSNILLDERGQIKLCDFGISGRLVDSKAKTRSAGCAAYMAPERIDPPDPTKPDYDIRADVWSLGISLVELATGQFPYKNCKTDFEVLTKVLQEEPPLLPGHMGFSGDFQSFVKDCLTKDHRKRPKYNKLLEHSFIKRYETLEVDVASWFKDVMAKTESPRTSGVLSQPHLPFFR

[2] = target: T2, Neutrophil elastase (Homo sapiens) (UniProt P08246); assay: Inhibition of recombinant HNE (unknown origin) at <50 uM using N-methylsuccinyl-Ala-Ala-Pro-Val-7-amino-4-methylcoumarin, as a substrate measured every 30 sec for 10 mins by fluorometric assay
T2 sequence (whole entry): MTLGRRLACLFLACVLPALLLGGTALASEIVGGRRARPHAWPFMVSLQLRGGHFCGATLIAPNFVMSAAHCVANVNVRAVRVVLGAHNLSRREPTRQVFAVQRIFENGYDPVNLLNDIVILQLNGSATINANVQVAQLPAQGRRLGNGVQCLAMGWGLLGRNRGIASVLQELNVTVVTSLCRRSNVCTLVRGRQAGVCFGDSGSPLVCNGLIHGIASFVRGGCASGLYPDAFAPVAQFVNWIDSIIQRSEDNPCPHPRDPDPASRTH

PBMC = assay: Cytotoxicity against human PBMC cells assessed as reduction in cell viability incubated for 24 hrs by CellTiter-Glo luminescent cell viability assay; type: cell-based
Jurkat = assay: cells; conditions: Homo sapiens, 24 h
LS174T = assay: Cytotoxicity against human LS174T cells assessed as reduction in cell viability incubated for 24 hrs by CellTiter-Glo luminescent cell viability assay; type: functional, cell-based
[3] = target: T3, M-phase inducer phosphatase 1 (Homo sapiens, UniProt P30304)
T3 sequence (P30304 whole entry): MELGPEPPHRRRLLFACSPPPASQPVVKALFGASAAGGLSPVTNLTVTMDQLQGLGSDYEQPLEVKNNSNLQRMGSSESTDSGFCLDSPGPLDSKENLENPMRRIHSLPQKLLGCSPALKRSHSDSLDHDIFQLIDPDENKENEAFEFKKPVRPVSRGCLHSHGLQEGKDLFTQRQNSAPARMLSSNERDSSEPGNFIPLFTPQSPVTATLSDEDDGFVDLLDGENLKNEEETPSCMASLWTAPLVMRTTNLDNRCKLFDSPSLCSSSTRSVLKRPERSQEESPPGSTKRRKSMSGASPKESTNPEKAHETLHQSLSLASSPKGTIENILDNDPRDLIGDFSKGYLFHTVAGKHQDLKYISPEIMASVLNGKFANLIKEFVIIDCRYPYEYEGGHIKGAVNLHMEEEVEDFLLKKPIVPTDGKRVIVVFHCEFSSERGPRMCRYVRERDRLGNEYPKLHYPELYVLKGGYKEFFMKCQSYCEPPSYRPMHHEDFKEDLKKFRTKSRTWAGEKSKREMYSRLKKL

HL-60 = assay: Cytotoxicity against human HL60 cells assessed as reduction in cell viability incubated for 24 hrs by CellTiter-Glo luminescent cell viability assay; type: functional, cell-based; conditions: for pIC50: HL-60, 24 h
THP-1 = assay: Cytotoxicity against human THP1 cells assessed as reduction in cell viability incubated for 24 hrs by CellTiter-Glo luminescent cell viability assay; type: functional, cell-based; conditions: THP-1, 24 h
MONO-MAC-6 = assay: Cytotoxicity against human MONO-MAC-6 cells assessed as reduction in cell viability incubated for 24 hrs by CellTiter-Glo luminescent cell viability assay; type: functional, cell-based; conditions: MONO-MAC-6, 24 h
SW982 = assay: Cytotoxicity against human SW982 cells assessed as reduction in cell viability incubated for 24 hrs by CellTiter-Glo luminescent cell viability assay; type: functional, cell-based; conditions: SW982, 24 h
MCF7 = assay: Cytotoxicity against human MCF7 cells assessed as reduction in cell viability incubated for 24 hrs by CellTiter-Glo luminescent cell viability assay; type: functional, cell-based; conditions: MCF7, 24 h
U-937 = assay: Cytotoxicity against human U937 cells assessed as reduction in cell viability incubated for 24 hrs by CellTiter-Glo luminescent cell viability assay; type: functional, cell-based; conditions: U-937, 24 h
A549 = assay: Cytotoxicity against human A549 cells assessed as reduction in cell viability incubated for 24 hrs by CellTiter-Glo luminescent cell viability assay; type: functional, cell-based; conditions: for pIC50: A549, 24 h
[4] = target: T4, M-phase inducer phosphatase 2 (Homo sapiens, UniProt P30305)
T4 sequence (P30305 whole entry): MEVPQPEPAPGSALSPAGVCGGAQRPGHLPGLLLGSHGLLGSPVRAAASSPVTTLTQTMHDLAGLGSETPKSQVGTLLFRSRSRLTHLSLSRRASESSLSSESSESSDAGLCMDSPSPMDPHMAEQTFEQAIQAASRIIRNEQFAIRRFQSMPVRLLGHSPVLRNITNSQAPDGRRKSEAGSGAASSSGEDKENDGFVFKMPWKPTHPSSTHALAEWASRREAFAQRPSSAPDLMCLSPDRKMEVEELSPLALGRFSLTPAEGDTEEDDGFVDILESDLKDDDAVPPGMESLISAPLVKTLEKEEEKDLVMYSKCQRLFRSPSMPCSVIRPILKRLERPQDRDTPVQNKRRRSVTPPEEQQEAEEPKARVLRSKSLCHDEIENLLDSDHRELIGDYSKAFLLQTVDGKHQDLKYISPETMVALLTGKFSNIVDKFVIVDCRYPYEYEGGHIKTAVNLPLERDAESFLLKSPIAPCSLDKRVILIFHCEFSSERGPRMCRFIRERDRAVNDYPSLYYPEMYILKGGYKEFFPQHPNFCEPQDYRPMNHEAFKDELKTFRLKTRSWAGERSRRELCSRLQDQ

[5] = target: T5, Dual specificity mitogen-activated protein kinase kinase 7 (Homo sapiens, UniProt O14733); assay: biochemical
T5 sequence (O14733 whole entry): T1 sequence (whole entry)

Activity [1] | SMILES | inhibition [2] | pIC50 (Jurkat) | pIC50 (LS174T) | pIC50 [3] | pIC50 (THP-1) | pIC50 (MONO-MAC-6) | pIC50 (SW982) | pIC50 (MCF7) | pIC50 (U-937) | pIC50 (A549) | pIC50 (HL-60) | pIC50 [4] | further results
inactive | Nn1c(CCC(=O)O)nc2ccccc2c1=O |  |  |  |  |  |  |  |  |  |  |  |  | 
 | CC1=CC(=O)c2c(O)cccc2C1=O | inactive |  |  |  |  |  |  |  |  |  |  |  | 
 | O=C1C(O)=C(CN(CCCl)CCCl)C(=O)c2ccccc21 |  |  |  | 4.81 |  |  |  |  |  |  |  |  | 
 | O=C(O)CSC1=CC(=O)c2ccccc2C1=O | inactive | 6.03 |  | 7.30 |  | 4.63 | 4.95 |  | 4.80 | 4.64 | 4.69 | 6.00 | pKd [5]: 5.85; Activity (A549): inactive
 | CCN(CC)CCNC(=O)c1c(C)[nH]c(/C=C2\C(=O)Nc3ccc(F)cc32)c1C [SUNITINIB] |  |  |  |  |  |  | 4.39 |  | 4.86 |  |  |  | pIC50 (PBMC): 4.33
inactive | O=C(O)CCNC(=O)Cn1cnc2ccccc2c1=O |  |  |  |  |  |  |  |  |  |  |  |  | 
 | O=C(O)CCSC1=CC(=O)c2ccccc2C1=O | inactive | 5.04 |  | 5.82 | 4.75 | 4.66 | 4.98 |  | 4.73 |  | 4.82 | 5.80 | pIC50 (PBMC; read-out: IC50): 4.63; pKd [5]: 6.64
 | CC1=C(SC(C)C)C(=O)c2ccccc2C1=O | inactive | 5.33 | 4.68 | 5.20 | 5.44 | 5.70 | 4.89 | 4.77 | 5.05 | 4.62 | 5.37 | 5.04 | pKd [5]: 4.89
 | CSC1=C(SC)C(=O)c2ccccc2C1=O | inactive | 5.85 | 4.82 |  | 5.77 |  | 5.12 | 5.13 |  | 4.91 | 6.15 |  | 
 | COC(=O)c1ccc(NC2=C(Cl)C(=O)c3ccccc3C2=O)cc1 | inactive |  |  | 4.69 |  |  |  |  |  |  |  | 4.96 | inhibition [1]: inactive
 | O=C(O)CCNC1=C(Cl)C(=O)c2ccccc2C1=O | inactive |  |  | 4.58 |  |  |  |  |  |  |  | 4.54 | inhibition [1]: inactive
 | O=C(O)c1ccc(NC2=C(Cl)C(=O)c3ccccc3C2=O)cc1 | inactive | 5.26 | 5.00 | 5.62 | 5.25 | 5.22 | 5.34 | 4.84 | 5.41 | 4.75 | 5.05 | 5.31 | pIC50 (PBMC; read-out: IC50): 4.88; inhibition [1]: inactive
inactive | Cn1c(SCCC(=O)O)nc2ccccc2c1=O |  |  |  |  |  |  |  |  |  |  |  |  | 
 | COCCSC1=C(C)C(=O)c2ccccc2C1=O | inactive | 5.49 | 4.80 | 5.24 | 5.66 | 5.77 | 5.01 | 4.83 | 5.28 | 4.73 | 5.80 | 5.19 | pKd [5]: 4.85
 | O=C(O)CCCNC1=C(Cl)C(=O)c2ccccc2C1=O | inactive |  |  | 5.09 |  |  |  |  |  |  |  | 4.96 | inhibition [1]: inactive
inactive | O=C(O)CCCc1nc2ccccc2c(=O)[nH]1 |  |  |  |  |  |  |  |  |  |  |  |  | 
 | CCSC1=C(C)C(=O)c2ccccc2C1=O | inactive | 5.41 | 4.76 | 5.26 | 5.54 | 5.48 | 5.11 | 4.91 | 5.17 | 4.67 | 5.51 | 5.33 | pKd [5]: 4.89
 | COC(=O)c1ccc(NC2=C(N3CCCCC3)C(=O)c3ccccc3C2=O)cc1 | inactive |  |  | 4.94 |  |  |  |  |  |  |  | 4.85 | inhibition [1]: inactive
inactive | O=C(O)CCSc1nc(O)c2ccccc2n1 |  |  |  |  |  |  |  |  |  |  |  |  | 
 | O=C(O)CCCCCNC1=C(Cl)C(=O)c2ccccc2C1=O | inactive |  |  | 4.44 |  |  |  |  |  |  |  | 4.63 | inhibition [1]: inactive
 | CC1=C(SCCC(=O)O)C(=O)c2ccccc2C1=O | inactive |  |  | 5.29 |  |  |  |  |  |  |  |  | pKd [5]: 4.82
inactive | O=C(O)CSc1nc(O)c2ccccc2n1 |  |  |  |  |  |  |  |  |  |  |  |  | 

SMILES | Activity [1] | inhibition [2] | pIC50 (Jurkat) | pIC50 (LS174T) | pIC50 [3] | pIC50 (THP-1) | pIC50 (MONO-MAC-6) | pIC50 (SW982) | pIC50 (MCF7) | pIC50 (U-937) | pIC50 (A549) | pIC50 (HL-60) | pIC50 [4] | further results
CC(C)=CC[C@@H](O)C1=CC(=O)c2c(O)ccc(O)c2C1=O [SHIKONIN] | inactive | inactive | 6.01 | 5.05 | 6.66 | 6.09 | 5.59 | 5.55 | 5.57 | 5.92 | 5.14 |  |  | pIC50 (PBMC; read-out: IC50): 5.30; Activity (HL-60): Dose-dependent effect
CC1=C(SCCO)C(=O)c2ccccc2C1=O | inactive | inactive | 5.17 | 4.40 | 5.35 | 5.41 | 5.20 | 4.71 | 4.51 | 4.92 | 4.38 | 5.03 | 4.96 | pIC50 (PBMC; read-out: IC50): 4.88
COC1=CC(=O)c2ccccc2C1=O [2-Methoxy-1,4-naphthoquinone] | inactive | inactive | 4.79 | 4.47 | 5.64 | 4.78 | 5.32 | 4.53 | 5.21 | 4.86 | 4.79 | 5.15 | 4.33 | pIC50 (PBMC; read-out: IC50): 4.53
CC1=CC(=O)c2ccccc2C1=O [MENADIONE] | inactive | inactive | 5.30 | 4.58 | 5.16 |  |  | 5.03 | 5.05 | 5.20 | 4.60 | 5.25 | 5.41 | pIC50 (PBMC; read-out: IC50): 4.84
